Data: patent US20250214947A1, “3,4-DIHYDROQUINOXALINE-2-CARBOXIMIDE DERIVATIVE COMPOUND AND PHARMACEUTICAL COMPOSITION COMPRISING SAME FOR PREVENTING OR TREATING CANCER DISEASE” (Cureverse Incorporated, priority 2022, published 2025)

How the values were obtained:
HDAC10 = target: T1, HDAC10 (Homo sapiens, UniProt Q969S8); assay: Selective inhibitory effect, HDAC Fluorogenic assay kit, HDAC10; settings: read-out: HDAC10 enzyme activity (%)
T1 sequence (Q969S8 1-669): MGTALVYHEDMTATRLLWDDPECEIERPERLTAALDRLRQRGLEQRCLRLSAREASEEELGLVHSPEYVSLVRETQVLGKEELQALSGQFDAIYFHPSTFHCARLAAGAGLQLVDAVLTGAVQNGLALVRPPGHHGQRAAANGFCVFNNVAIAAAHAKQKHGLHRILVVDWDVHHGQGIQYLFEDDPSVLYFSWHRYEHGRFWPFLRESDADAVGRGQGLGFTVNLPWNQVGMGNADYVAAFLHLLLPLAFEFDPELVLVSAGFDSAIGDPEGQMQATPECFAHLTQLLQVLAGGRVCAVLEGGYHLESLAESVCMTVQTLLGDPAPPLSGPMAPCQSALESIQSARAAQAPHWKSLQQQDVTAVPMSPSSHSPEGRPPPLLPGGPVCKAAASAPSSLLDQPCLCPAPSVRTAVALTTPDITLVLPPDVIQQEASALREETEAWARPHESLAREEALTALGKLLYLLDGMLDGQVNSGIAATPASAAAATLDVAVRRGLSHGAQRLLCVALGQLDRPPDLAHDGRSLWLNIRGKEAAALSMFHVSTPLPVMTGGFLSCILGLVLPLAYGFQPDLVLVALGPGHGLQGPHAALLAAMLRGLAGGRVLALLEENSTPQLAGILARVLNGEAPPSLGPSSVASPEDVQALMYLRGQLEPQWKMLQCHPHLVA
Method: (§1) For analysis, HDAC substrate 3 was diluted in buffer to a concentration of 200 μM and used in HDAC 1, 2, 3, 6, and 10 assays, HDAC substrate 2A was diluted in buffer to a concentration of 200 μM and used in HDAC 4, 7, 9, and 11 assays, HDAC substrate 2A was diluted in buffer to a concentration of 20 μM and used in HDAC 8 assays. For the HDAC 11 assay, a dedicated buffer included in the kit was used separately, and the same buffer was used for the remaining assays. The compound of the Example was diluted to 1 mM (1% DMSO concentration) using DMSO to obtain a final concentration of 10 μM, and prepared by diluting 1/10 with assay buffer. In a 96-well black round-bottom plate, 5 μL of the diluted compound of the Example, 5 μL of the diluted HDAC substrate, 5 μL of BSA (1 mg/ml), 5 μL of the HDAC enzyme diluted to the appropriate concentration, and 30 μL of assay buffer were added, and the enzyme reaction was performed at 37° C. for 30 minutes. […] Afterwards, 50 μL of 2×HDAC developer was added to each well. After reacting for 15 minutes at room temperature, the fluorescence values at excitation wavelengths of 350-380 nm and emission wavelengths of 440-460 nm were measured using a microplate reader (Synergy Neo).

HDAC2 = HDAC2 (Homo sapiens, UniProt Q92769); assay: Selective inhibitory effect, HDAC Fluorogenic assay kit, HDAC2; settings: read-out: HDAC2 enzyme activity (%)
Method: as §1

HDAC6 = target: T2, HDAC6 (Homo sapiens, UniProt Q9UBN7); assay: Selective inhibitory effect, HDAC Fluorogenic assay kit, HDAC6; settings: read-out: HDAC6 enzyme activity (%)
T2 sequence (Q9UBN7 1-1215): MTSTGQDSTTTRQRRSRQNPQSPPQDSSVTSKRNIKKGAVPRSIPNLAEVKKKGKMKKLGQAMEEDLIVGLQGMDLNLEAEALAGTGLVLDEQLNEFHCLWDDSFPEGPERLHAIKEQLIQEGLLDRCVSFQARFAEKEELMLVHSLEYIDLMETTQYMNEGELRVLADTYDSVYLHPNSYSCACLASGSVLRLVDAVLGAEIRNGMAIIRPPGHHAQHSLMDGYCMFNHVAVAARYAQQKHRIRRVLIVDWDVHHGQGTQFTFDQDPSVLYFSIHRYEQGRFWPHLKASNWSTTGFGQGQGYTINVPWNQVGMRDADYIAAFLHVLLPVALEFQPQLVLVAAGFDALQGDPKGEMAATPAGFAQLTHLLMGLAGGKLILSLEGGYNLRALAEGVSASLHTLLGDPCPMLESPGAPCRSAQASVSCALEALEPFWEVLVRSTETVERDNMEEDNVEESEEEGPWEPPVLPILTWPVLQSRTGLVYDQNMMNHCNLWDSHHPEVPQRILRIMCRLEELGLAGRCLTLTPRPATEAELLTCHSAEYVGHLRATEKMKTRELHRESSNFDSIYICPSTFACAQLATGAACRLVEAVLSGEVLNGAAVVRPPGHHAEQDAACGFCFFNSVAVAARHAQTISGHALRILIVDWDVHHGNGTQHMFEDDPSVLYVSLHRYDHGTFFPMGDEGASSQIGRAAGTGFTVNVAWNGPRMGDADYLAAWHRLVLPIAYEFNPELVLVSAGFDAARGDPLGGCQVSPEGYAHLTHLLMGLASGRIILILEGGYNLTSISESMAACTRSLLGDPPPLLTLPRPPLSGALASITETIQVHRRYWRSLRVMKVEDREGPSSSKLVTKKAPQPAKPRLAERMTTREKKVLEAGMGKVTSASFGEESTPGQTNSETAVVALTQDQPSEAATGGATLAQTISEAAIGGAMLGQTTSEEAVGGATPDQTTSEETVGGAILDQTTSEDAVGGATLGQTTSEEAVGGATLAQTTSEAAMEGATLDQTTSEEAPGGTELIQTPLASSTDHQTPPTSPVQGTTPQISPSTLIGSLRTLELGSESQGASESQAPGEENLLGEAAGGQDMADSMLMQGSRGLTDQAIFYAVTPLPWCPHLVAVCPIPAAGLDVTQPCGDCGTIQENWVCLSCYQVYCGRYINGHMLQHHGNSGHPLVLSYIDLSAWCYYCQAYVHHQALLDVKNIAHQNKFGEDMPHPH
Method: as §1

Sequence of HDAC2 (Q92769 whole entry): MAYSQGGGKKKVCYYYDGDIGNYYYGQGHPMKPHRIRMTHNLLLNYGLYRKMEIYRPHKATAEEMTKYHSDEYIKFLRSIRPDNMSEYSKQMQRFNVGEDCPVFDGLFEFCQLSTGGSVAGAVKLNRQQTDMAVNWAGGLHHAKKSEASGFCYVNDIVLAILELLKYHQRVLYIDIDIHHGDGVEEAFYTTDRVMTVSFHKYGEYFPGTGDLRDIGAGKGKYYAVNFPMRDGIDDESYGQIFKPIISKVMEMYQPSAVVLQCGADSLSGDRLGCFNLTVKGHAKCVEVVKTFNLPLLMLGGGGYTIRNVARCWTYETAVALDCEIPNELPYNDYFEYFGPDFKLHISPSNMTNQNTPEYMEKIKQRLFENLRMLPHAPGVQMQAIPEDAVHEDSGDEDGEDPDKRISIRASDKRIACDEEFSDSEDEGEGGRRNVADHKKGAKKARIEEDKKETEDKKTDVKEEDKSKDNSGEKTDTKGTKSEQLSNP

Compound: Cc1cc2nc(C(=O)NCCc3c[nH]c4ccc(O)cc34)c(=O)n(C[C@H](O)[C@H](O)[C@H](O)CO)c2cc1C [Example 27, N-(2-(5-hydroxy-1H-indol-3-yl)ethyl)-6,7-dimethyl-3-oxo-4-((2S,3S,4R)-2,3,4,5-tetrahydroxypentyl)-3,4-dihydroquinoxaline-2-carboxamide]
- remaining activity at 10 µM (HDAC10): 87.2%
- remaining activity at 10 µM (HDAC2): 91.2%
- remaining activity at 10 µM (HDAC6): 43.7%
